Results published in patent US8816065B2, “Pharmaceutical or cosmetic composition containing nicotinic acid adenine dinucleotide phosphate or derivative thereof” (Damy Chemical Co., Ltd., priority 2010, dated 2014).

How the values were obtained:
[1] = tested on: Epidermal keratinocyte neonatal (NHEK-Np); experiment: Increase in intracellular calcium in cultured keratinocytes (fluo-3 AM, confocal microscopy); format: cell-based, human
Protocol: In the present example, an efficacy in inducing an increase in intracellular calcium was evaluated when cultured keratinocytes were treated with NAADP in order to confirm an effect of recovering a skin barrier in the composition of the present invention.
Epidermal keratinocyte neonatal (NHEK-Np, CC-2507, Lonza Co. Ltd.) was treated with fluo-3 AM (Molecular Probe, USA), an intracellular calcium marker, for 30 minutes in a CO2 incubator and then washed with a KBM (Keratinocyte Basal Media, KBM-2, Lonza Co. Ltd.) medium three times. Measurement of intracellular calcium was performed in the KBM medium and an increase in intracellular calcium due to NAADP was observed. For the measurement of intracellular calcium, a concentration of calcium was calculated through the collection of images at 530 nm by using a confocal microscopy (Nikon, Japan) equipped with a laser source having an excitation wavelength of 488 nm and an emission wavelength of 530 nm Amounts of changes in calcium measured when epidermal keratinocyte neonatal (5×10^5 cells) was treated with 0.1 nM, 1 nM, 10 nM, 100 nM, 1000 nM of NAADP are illustrated in FIG. 1, respectively.

[2] = tested on: involucrin, keratin 1, and keratin 10 in primarily cultured epidermal keratinocyte neonatal; experiment: Expression of keratinocyte differentiation markers by western blotting; format: cell-based, human
Protocol: An effect of NAADP on promoting cell differentiation was tested by measuring the expression of differentiation markers (involucrin, keratin 1, and keratin 10) generated during the differentiation of the keratinocytes by using a western blotting method.
Primarily cultured epidermal keratinocyte neonatal was put into a culture flask and attached to the bottom thereof, and then cultured for 5 days until the cells grew to cover about 70% to 80% of an area of the bottom by adding NAADP diluted for each concentration and retinol acid as a control group into a culture medium. The cells were harvested and cleaned with phosphate buffered saline (PBS). Next, precipitates obtained by adding 1 ml of a 10 mM tris-HCl (pH 7.4) buffer solution containing 2% sodium dodecyl sulfate (SDS) and 20 mM dithiothreitol (DTT) and being subjected to sonication, boiling, and centrifugation were again suspended in 1 ml of PBS. A content of protein in the suspension was measured and used as a criterion during the evaluation of a degree of cell differentiation. The results of tests performed by using a group treating the epidermal keratinocyte neonatal (5×10^5 cells) with retinol acid (1 μM) as a positive control group and adding each NAADP having different concentration (10 pM to 10 μM) to a low calcium concentration are presented in the following FIG. 2.

[3] = tested on: keratin 1 and keratin 10 in outer skin of hairless mice; experiment: Induction of keratinocyte differentiation in hairless mouse skin after topical application (keratin 1/keratin 10 immunostaining); format: in vivo
Protocol: Hairless mice (SPF/VAF Crl:SKH 1-hr) used in the present tests were purchased from OrientBio (Seongnam, Korea). NAADP, an experiment material of the present invention, used was a product of Sigma-Aldrich Corporation.
Test materials were prepared by dissolving NAADP for each concentration in a solution, in which 1% dimethyl sulfoxide (DMSO) was added to a phosphate buffer solution, and tests were performed by using a method of applying the test materials on right and left portions of the back of a 6-week-old mouse with cotton swabs. The test materials were applied 5 times for each concentration and the applications were performed twice a day at 9:00 a.m. and 7:00 p.m. Animals having the test materials applied for one week were sacrificed by cervical dislocation, and the skin was dissected to prepare a size of 1 cm×1 cm and was then fixed in a 10% formalin solution over a night. A paraffin block was prepared from the fixed tissues to prepare 5 micrometer slices and the slices were dyed with an antibody (Santa Cruz #SC53251) simultaneously identifying keratin 1 and keratin 10 at a dilution ratio of 1:100. Anti-mouse IgG (invitrogen) combined with Alexa 488 was used as a secondary antibody.
A solution, in which 1% DMSO was added to a phosphate buffer solution, was used as a control group and solutions prepared by diluting the solution used as the control group with NAADP in various concentrations were used as a test group.

[4] = in vitro, NAADP having a high concentration

Substance: nicotinic acid adenine dinucleotide phosphate [NAADP]
- intracellular calcium at high concentration of NAADP [1, 4]: increased
- movement of intracellular calcium ([1]; treatment with 1 nM to 100 nM of NAADP, 5×10^5 cells, FIG. 1): induced
- expression of differentiation markers (involucrin, keratin 1, keratin 10) ([2]; 10 pM to 10 μM of NAADP, low calcium concentration, cultured 5 days, FIG. 2): differentiation markers were expressed
- effect on keratin 1 and keratin 10 relative to the other marker ([2]; 10 pM to 10 μM of NAADP, FIG. 2): better effects
- expression of the markers at high concentration of NAADP [2, 4]: decreased
- concentration dependence of keratin 1 and keratin 10 increase in vivo ([3]; hairless mouse): increased by depending on the concentration of NAADP
- concentration at which an increase in the expression level of the differentiation marker appeared ([3]; twice a day for one week): ≥ 100 nM
- expression levels of keratin 1 and keratin 10 in outer skin versus control group ([3]; twice a day for one week, in PBS with 1% DMSO, FIG. 3): increased
